Reference: article PMC10392676, “Structural basis of anti-SARS-CoV-2 activity of HCQ: specific binding to N protein to disrupt its interaction with nucleic acids and LLPS” (QRB Discovery, 2021)

How the values were obtained:
[1] = molecular target: CTD of SARS-CoV-2 nucleocapsid (N) protein (Severe acute respiratory syndrome coronavirus 2, UniProt P0DTC9); assay: 1H-15N HSQC NMR titration, […] MHz, one-site fit of chemical shift differences, average of […] residues; format: binding
[2] = molecular target: NTD of SARS-CoV-2 nucleocapsid (N) protein (Severe acute respiratory syndrome coronavirus 2, UniProt P0DTC9); assay: as above; format: binding

In the case of `CCN(CCO)CCCC(C)Nc1ccnc2cc(Cl)ccc12` (centres unmarked) [Hydroxychloroquine], the Kd [1] is reported as 52.1 ± 17.6 µM and the Kd [2] is reported as 112 ± 32.2 µM.
